Here are results for nine compounds from patent US20240132431A1, “METHOD FOR ALKYLATING ACIDIC FUNCTIONAL GROUP” (Chugai Seiyaku Kabushiki Kaisha, priority 2021, published 2024).

This assay concerns the target T1, Bcl-2 protein (Recombinant Human Bcl-2 Protein) (Homo sapiens, UniProt P10415).
T1 construct: purchased Novus NBP2-34889
Description: Binding evaluation of mixture library compounds to Bcl-2 using AS-MS (affinity selection mass spectrometry). Conditions: for ASMS ratio (%) n = 1 / ASMS ratio (%) n = 2: AS-MS, Bcl-2, ASMS Ratio(%)=(A−C)/B×100; for ASMS ratio (%) n = 1: replicate n = 1; for ASMS ratio (%) n = 2: replicate n = 2. Here is the method: For one well of MICROPLATE, 96-well, PP, V-BOTTOM (Greiner bio-one, 651201), DMSO solutions of 12 mixtures (prepared to approximately 0.58 mM based on calculations from the average molecular weight of each mixture), in each of which 100 compounds are mixed, were each dispensed, and dispensed into a total of 12 wells, where the 12 mixtures are mixAI-B4J-01, mixAI-B1M-01, mixAI-B1K-01, mixAI-B10-01, mixAI-B1A-01, mixAI-B3A-01, mixAI-B21-01, mixAI-B2L-01, mixAI-B2N-01, mixAI-B2A-01, mixAI-B2Q-01, and mixAI-B2R-01 listed in [Table AI-03-B4J-01], [Table AI-03-B1M-01], [Table AI-03-B1K-01], [Table AI-03-B10-01], [Table AI-03-B1A-01], [Table AI-03-B3A-01], [Table AI-03-B2I-01], [Table AI-03-B2L-01], [Table AI-03-B2N-01], [Table AI-03-B2A-01], [Table AI-03-B2Q-01], and [AI-03-B2R-01] shown in Example 6. Using the LABCYTE ECHO® 555 Acoustic Dispensing System (BECKMAN COULTER), 70 nL was collected from each of the 12 wells into one arbitrary well to prepare a sample solution with 1200 compounds in the mixed state (the presence of 1152 compounds had already been identified when prepared in Example 6-5-3). (In the present specification, the mixture collected in this one well is referred to as one library.) Furthermore, a Bcl-2 protein (Novus, NBP2-34889, Recombinant Human Bcl-2 Protein, Lot E60145051) (19.2 μL) that had been prepared in advance to be 20.9 μM using a Tris-HCl buffer (25 mM Tris-HCl pH 7.4, 150 mM NaCl, 0.025% Tween-20, 1 mM DTT) was added to the well in which 1200 compounds (the presence of 1152 compounds had already been identified when prepared in Example 6-5-3) were dispensed (final compound concentration […], final Bcl-2 concentration 20 μM), and the mixture was incubated in the dark at 23° C. for 1 hour. Next, using the 96-well MacroSpin column, P-2 Material (Harvard, 74-5655) that had been swollen, conditioning of the 96-well MacroSpin column was performed three times by centrifugation with 200 μL of an assay buffer (25 mM Tris-HCl pH 7.4, 150 mM NaCl, 0.025% Tween-20, 1 mM DTT), 2000 XG, 4° C., 2 min. Subsequently, 20 μL of the sample after incubation was added to the 96-well MacroSpin column, P-2 Material, that had been conditioned, and SEC treatment was performed by centrifugation at 2000×G for 2 minutes. To the liquid passed from the SEC, 32 μL of a 1:1 mixed solution of acetonitrile and methanol (LC/MS grade, Fujifilm Wako Pure Chemical Corporation) was added, the mixture was centrifuged at 1800×G, 4° C., 5 min, and the supernatant was used as analysis sample ASMS (A), while a sample that had been prepared by the same operations at 1200 compounds/well and to which only the Tris-HCl buffer had been added without the Bcl-2 protein was incubated under the same conditions, no 96-well MacroSpin column treatment was performed, the same organic solvent was added, and the supernatant solution obtained by centrifugation was used as STD (B). Next, a sample that had been prepared by the same operations at 1200 compounds/well and to which only the Tris-HCl buffer had been added without the Bcl-2 protein was incubated under the same conditions, the same 96-well MacroSpin column treatment was performed, the same organic solvent was added, and the supernatant solution obtained by centrifugation was used as BK (C), and measured by reversed phase LC/MS.
Then, analysis of the 1200 compounds was carried out for samples A, B, and C with TraceFinder 5.1 (Thermo Fisher Scientific) and CHANCE Software (in-house), and the ASMS Ratio (%) was calculated according to the following calculation formula.
Calculation formula: ASMS Ratio(%)=(A−C)/B×100

Each structure is given as a SMILES string.

T1 sequence (P10415 whole entry): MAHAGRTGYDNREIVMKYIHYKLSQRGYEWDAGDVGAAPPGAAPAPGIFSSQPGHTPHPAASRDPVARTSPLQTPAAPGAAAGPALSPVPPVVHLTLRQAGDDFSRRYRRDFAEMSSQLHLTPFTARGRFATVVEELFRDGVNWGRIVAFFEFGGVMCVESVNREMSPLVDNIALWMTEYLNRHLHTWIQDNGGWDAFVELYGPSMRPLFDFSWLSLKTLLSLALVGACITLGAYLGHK

`CCOc1cncc(C#Cc2cncc(C(=O)N3CCN(c4ccc(C(=O)NS(=O)(=O)c5ccc(NCCSc6ccccc6)c(C(F)(F)F)c5)nn4)CC3)c2)c1` [B2R010-01, 6-[4-[5-[2-(5-Ethoxypyridin-3-yl)ethynyl]pyridine-3-carbonyl]piperazin-1-yl]-N-[4-(2-phenylsulfanylethylamino)-3-(trifluoromethyl)phenyl]sulfonylpyridazine-3-carboxamide]: the “ASMS ratio (%)” value is on record as 0.0% (n = 1) and 0.0% (n = 2).
As for `CCOc1cncc(-c2cc(OC)c(CN3CCN(c4ccc(C(=O)NS(C)(=O)=O)nn4)CC3)c(OC)c2)c1` [B2I086-01, 6-[4-[[4-(5-Ethoxypyridin-3-yl)-2,6-dimethoxyphenyl]methyl]piperazin-1-yl]-N-methylsulfonylpyridazine-3-carboxamide], the “ASMS ratio (%)” value turned out to be 0.0% (n = 1) and 0.0% (n = 2).
In the case of `CCOc1cncc(-c2ccc(C(=O)N3CCN(c4ccc(C(=O)NCC56CC7CC(CC(C7)C5)C6)nn4)CC3)cc2C)c1` [B1A004-01, N-(1-Adamantylmethyl)-6-[4-[4-(5-ethoxypyridin-3-yl)-3-methylbenzoyl]piperazin-1-yl]pyridazine-3-carboxamide], for the setting “mixture of 1200 compounds”, the “ASMS ratio (%) n = 1” value was −6.2% and the “ASMS ratio (%) n = 2” value worked out at 2.6%.
`CCOc1cccc(-c2ccccc2CCC(=O)N2CCN(c3ccc(C(=O)NCC(F)(F)F)cc3)CC2)c1` [B1K033-01, 4-[4-[3-[2-(3-Ethoxyphenyl)phenyl]propanoyl]piperazin-1-yl]-N-(2,2,2-trifluoroethyl)benzamide]: for the setting “mixture of 1200 compounds”, the “ASMS ratio (%) n = 1” value was 2.3% and the “ASMS ratio (%) n = 2” value was −0.6%.
`CCOc1cccc(-c2cc(CN3CCN(c4ccc(C(=O)NS(C)(=O)=O)nn4)CC3)cc(C(F)(F)F)c2)c1` [B2I087-01, 6-[4-[[3-(3-Ethoxyphenyl)-5-(trifluoromethyl)phenyl]methyl]piperazin-1-yl]-N-methylsulfonylpyridazine-3-carboxamide]: the “ASMS ratio (%)” value (n = 1) came out at 1.3% and the “ASMS ratio (%)” value (n = 2) is listed as −0.9%.
`CCOc1cccc(-c2ccc(C(=O)N3CCN(c4ccc(C(=O)NCC(F)(F)F)nn4)CC3)cc2F)c1` [B1K005-01, 6-[4-[4-(3-Ethoxyphenyl)-3-fluorobenzoyl]piperazin-1-yl]-N-(2,2,2-trifluoroethyl)pyridazine-3-carboxamide]: under “mixture of 1200 compounds”, the “ASMS ratio (%) n = 1” value is listed as −0.1% and the “ASMS ratio (%) n = 2” value is reported as 0.6%.
In the case of `CCOc1cncc(-c2ccccc2CCC(=O)N2CCN(c3ccc(C(=O)NS(=O)(=O)c4ccc(NCCSc5ccccc5)c(C(F)(F)F)c4)nn3)CC2)c1` [B2R012-01, 6-[4-[3-[2-(5-Ethoxypyridin-3-yl)phenyl]propanoyl]piperazin-1-yl]-N-[4-(2-phenylsulfanylethylamino)-3-(trifluoromethyl)phenyl]sulfonylpyridazine-3-carboxamide], the “ASMS ratio (%)” value (n = 1) came out at 15.8% and the “ASMS ratio (%)” value (n = 2) is 13.5%.
As for `CCOc1cncc(-c2ccccc2CCC(=O)N2CCN(c3ccc(C(=O)NS(=O)(=O)c4ccc(NCCSc5ccccc5)c([N+](=O)[O-])c4)cc3)CC2)c1` [B2Q034-01, 4-[4-[3-[2-(5-Ethoxypyridin-3-yl)phenyl]propanoyl]piperazin-1-yl]-N-[3-nitro-4-(2-phenylsulfanylethylamino)phenyl]sulfonylbenzamide], under “mixture library”, the “ASMS ratio (%) n = 1” value was 0.0% and the “ASMS ratio (%) n = 2” value is recorded as 0.0%.
Take `CCOc1cccc(-c2ccccc2CN2CCN(c3ccc(C(=O)NS(=O)(=O)CC45CC6CC(CC(C6)C4)C5)nn3)CC2)c1` [B2A071-01, N-(1-Adamantylmethylsulfonyl)-6-[4-[[2-(3-ethoxyphenyl)phenyl]methyl]piperazin-1-yl]pyridazine-3-carboxamide]: for the setting “mixture library”, the “ASMS ratio (%) n = 1” value is recorded as 16.1% and the “ASMS ratio (%) n = 2” value is 5.6%.
